Experimental data: US5049549A, “Rhodomycins with a modified carbohydrate unit” (Behringwerke Aktiengesellschaft, priority 1988, dated 1991)
In brackets after ≈: the same amount, converted by molar mass. Where two headings read alike, the source gives them in different places.

Legend:
A 549 cells = assay: Proliferation test (MTT reduction), A549; type: cell-based
Experimental: (§1) L1210, A 549 or HT 29 in the exponential growth phase are incubated in a cell density of 5×10^3 cells/ml in RPMI 1640 medium in a 96-well microtest plate with various concentrations of the test substance at 37° C., 5% CO2 and 95% relative humidity for 72 h. Control experiments contain merely growth medium in place of test substance. Determinations in quadruplicate are made up for each test substance and for the control. After incubation for 65 h, 50 µl of an MTT solution (2.5 mg/ml in phosphate-buffered saline) are added. In the presence of live cells MTT is reduced to a dark-red insoluble formazan dyestuff. This reaction is complete after 7 h (L1210 cells) or after 24 h (A 549, HT 29 cells), and the supernatant medium is carefully aspirated off. The insoluble dyestuff is dissolved by addition of 100 µl of DMSO, and the extinction of the solution produced in this way is subsequently measured at a wavelength of 492 nm for each well in a 340 CC Multiscan Photometer from Flow.
(§2) The ratio of the extinctions with treated and untreated cells yields a dose-effect plot from which the concentration which just kills 50% of the cells (IC50) can be read off. The coefficient of variation for repeat tests is less than 15%.

L1210 cells = assay: Proliferation test (MTT reduction), L1210; type: cell-based
Experimental: as §1, §2

HT 29 cells = assay: Proliferation test (MTT reduction), HT29; type: cell-based; details: Homo sapiens, read-out: IC50 MTT assay HT29
Experimental: as §1, §2

L1210 leukemia cells = assay: Cytotoxicity for L1210 leukemia cells (stem cell assay, SCA); type: cell-based; details: Mus musculus
Experimental: The test was carried out in accordance with the methods described by Hamburger and Salmon, with the modifications described below.
Conditioned medium was replaced by McCoy 5A medium. As a consequence of the high cloning rate of the L1210 leukemia cells in soft agar, the number of tumor cells per plate was reduced to 5×10^2.
The cells were incubated with various concentrations of the test substance at 37° C. for 1 h. The cells were subsequently washed twice with McCoy 5A medium and subsequently plated out in a two-layer agar system as upper layer in accordance with the Hamburger and Salmon method.
Additional parallel experiments were carried out using a continuous incubation time, in which case various concentrations of the test substance were mixed with the upper agar layer before plating out of the cells.
The plates were incubated in an incubator with 5% CO2, 20% O2 and 95% relative humidity for 5-7 days. After this time, colonies with a diameter of 60 μm were counted using an invertoscope.
The results have been reported as the percentage of colonies in treated versus untreated groups. The coefficient of variation for repeat experiments was less than 15%.
The IC50 for continuous and one-hour incubation was determined from the dose-effect plot (Tab. 1).

patients = details: cited from earlier work
[1] = L1210, 1 h, read-out: IC50 SCA 1 h
[2] = Homo sapiens, A549, 72 h; read-out: IC50 MTT assay A549
[3] = Mus musculus, L1210, 72 h; read-out: IC50 MTT assay L1210
[4] = L1210, 1 h incubation, read-out: IC50 SCA 1 h

Row | SMILES | IC50 (A 549 cells; [2]) | IC50 (L1210 cells; [3]) | IC50 (HT 29 cells; HT-29, HT29, 72 h) | IC50 (L1210 leukemia cells; [4]) | further results
1 | CC[C@@]1(O)C[C@H](O[C@H]2C[C@H](NC(=O)C(F)(F)F)[C@@H](N=[N+]=[N-])[C@H](C)O2)c2c(O)c3c(c(O)c2[C@H]1O)C(=O)c1cccc(O)c1C3=O [compound 17, 7-O-(4'-Azido-2',3',4',6'-tetradeoxy-3'-trifluoroacetamido-alpha-L-arabinohexopyranosyl)-β-rhodomycinone] |  |  |  |  | IC50 (A 549 cells; Homo sapiens, A549, 72 h, read-out: IC50 MTT assay A549): 0.52 µg/mL (≈ 0.817 µM); IC50 (L1210 cells; Mus musculus, L1210, 72 h, read-out: IC50 MTT assay L1210): 0.33 µg/mL (≈ 0.518 µM); IC50 (HT 29 cells; HT-29, 72 h): 0.34 µg/mL (≈ 0.534 µM); IC50 (L1210 leukemia cells; [1]): 1.4 µg/mL (≈ 2.2 µM)
2 | CC[C@@]1(O)C[C@H](O[C@H]2C[C@H](N)[C@H](N)[C@H](C)O2)c2c(O)c3c(c(O)c2[C@H]1O)C(=O)c1cccc(O)c1C3=O [compound 16, 7-O-(3',4'-Diamino-2',3',4',6'-tetradeoxy-alpha-L-lyxohexo-pyranosyl)-β-rhodomycinone] | 0.04 µg/mL (≈ 0.0777 µM) | 0.01 µg/mL (≈ 0.0194 µM) | 0.069 µg/mL (≈ 0.134 µM) | 0.069 µg/mL (≈ 0.134 µM) | 
3 | CC[C@@]1(O)C[C@H](O[C@H]2C[C@H](N=[N+]=[N-])[C@H](NC(=O)C(F)(F)F)[C@H](C)O2)c2c(O)c3c(c(O)c2[C@H]1O)C(=O)c1cccc(O)c1C3=O [compound 13, 7-O-(3'-Azido-2',3',4',6'-tetradeoxy-4'-trifluoroacetamido-alpha-L-lyxohexopyranosyl)-β-rhodomycinone] | 0.1 µg/mL (≈ 0.157 µM) | 0.1 µg/mL (≈ 0.157 µM) | 0.2 µg/mL (≈ 0.314 µM) | 0.29 µg/mL (≈ 0.456 µM) | 
4 | CC[C@@]1(O)C[C@H](O[C@H]2C[C@H](N)[C@@H](NC(=O)C(F)(F)F)[C@H](C)O2)c2c(O)c3c(c(O)c2[C@H]1O)C(=O)c1cccc(O)c1C3=O [compound 12, 7-O-(3'-Amino-2',3',4',6'-tetradeoxy-4'-trifluoroacetamido-alpha-L-arabinohexopyranosyl)-β-rhodomycinone] | 0.027 µg/mL (≈ 0.0442 µM) | 0.03 µg/mL (≈ 0.0491 µM) | 0.022 µg/mL (≈ 0.036 µM) | 0.44 µg/mL (≈ 0.721 µM) | 
5 | CC[C@@]1(O)C[C@H](O[C@H]2C[C@H](NC(=O)C(F)(F)F)[C@H](NC(=O)C(F)(F)F)[C@H](C)O2)c2c(O)c3c(c(O)c2[C@H]1O)C(=O)c1cccc(O)c1C3=O [compound 15, 7-O-(3',4'-bis-(trifluoroacetamido)-2',3',4',6'-tetradeoxy-alpha-L-lyxohexopyranosyl)-β-rhodomycinone] | 0.059 µg/mL (≈ 0.0835 µM) | 0.037 µg/mL (≈ 0.0524 µM) | 0.1 µg/mL (≈ 0.142 µM) | 0.43 µg/mL (≈ 0.609 µM) | 
6 | COc1cccc2c1C(=O)c1c(O)c3c(c(O)c1C2=O)C[C@@](O)(C(=O)CO)C[C@@H]3O[C@H]1C[C@H](N)[C@H](O)[C@H](C)O1 [Adriamycin, reference compound] |  |  |  |  | IC50 (L1210 leukemia cells; [1]): 0.04 µg/mL (≈ 0.0736 µM); IC50 (L1210 leukemia cells; L1210, read-out: IC50 SCA cont.): 0.02 µg/mL (≈ 0.0368 µM); side effects of the treatment (patients; clinical use, specialist literature): damage to the circulatory system and symptoms characteristic thereof
7 | COc1cccc2c1C(=O)c1c(O)c3c(c(O)c1C2=O)C[C@@](O)(C(C)=O)C[C@@H]3O[C@H]1C[C@H](N)[C@H](O)[C@H](C)O1 [daunorubicin] |  |  |  |  | side effects of the treatment (patients; in vivo): damage to the circulatory system and symptoms characteristic thereof
8 | CC[C@@]1(O)C[C@H](O[C@H]2C[C@H](N)[C@H](N)[C@H](C)O2)c2c(O)c3c(c(O)c2[C@H]1O)C(=O)c1cccc(OC)c1C3=O [compound 10, 4-O-Methyl-7-O-(3',4'-diamino-2',3',4',6'-tetradeoxy-alpha-L-lyxohexopyranosyl)-β-rhodomycinone] | 0.095 µg/mL (≈ 0.18 µM) | 0.039 µg/mL (≈ 0.0738 µM) | 0.033 µg/mL (≈ 0.0624 µM) |  | 
9 | CC[C@@]1(O)C[C@H](O[C@H]2C[C@H](O)[C@H](N)[C@H](C)O2)c2c(O)c3c(c(O)c2[C@H]1O)C(=O)c1cccc(OC)c1C3=O [compound 8] | 0.14 µg/mL (≈ 0.264 µM) | 0.043 µg/mL (≈ 0.0812 µM) | 0.043 µg/mL (≈ 0.0812 µM) |  | 
